Reference: patent publication US4695545A, “Culture and process for producing A41030 antibiotics” (Eli Lilly and Company, priority 1984, dated 1987)
“And” between values parts separate entries of the source, which are not always exact repeats. Equal entries are not always repeated.

Legend:
[1] = Electrometric titration (pKa); type: physicochemical; settings: electrometric titration in 66% dimethylformamide in water
Description: Antibiotic A41030 factor A is a white, crystalline solid.

Solubility in solvents = type: physicochemical; settings: qualitative
Description: As many as seven antibiotic factors are recovered from the fermentation and are obtained as a mixture, the A41030 complex. It will be recognized that the ratio of the factors in the A41030 complex will vary, depending upon the fermentation conditions used. The individual factors A, B, C, D, E, F, and G are separated and isolated as individual compounds, as hereinafter described.

Propionibacterium acnes [2] = assay: MIC against Propionibacterium acnes strains, 24-hour agar-dilution; type: cell-based
Description: Antibiotic A41030 factors A, B and C have been tested and found to be active against a genus of anaerobic bacteria identified as Propionibacterium acnes.

Clostridium difficile [3] = assay: MIC anaerobic bacteria, agar-dilution; type: cell-based; settings: Clostridium difficile 2994; agar-dilution (Table 9)
Clostridium perfringens = type: cell-based; settings: Clostridium perfringens 81; agar-dilution
Clostridium septicum = assay: MIC anaerobic bacteria, agar-dilution; type: cell-based; settings: Clostridium septicum 1128
[4] = test system: Peptococcus asaccharolyticus; assay: MIC anaerobic bacteria, agar-dilution; type: cell-based; settings: Peptococcus asaccharolyticus 1302
Peptococcus prevoti = assay: MIC anaerobic bacteria, agar-dilution; type: cell-based; settings: Peptococcus prevoti 1281
[5] = test system: Peptostreptococcus anaerobius; assay: MIC anaerobic bacteria, agar-dilution; type: cell-based; settings: Peptostreptococcus anaerobius 1428
Propionibacterium acnes [6] = assay: MIC anaerobic bacteria, agar-dilution; type: cell-based; settings: Propionibacterium acnes 79; agar-dilution (Table 9)
Bacteroides fragilis = assay: MIC anaerobic bacteria, agar-dilution; type: cell-based
[7] = test system: Bacteroides thetaiotaomicron; assay: MIC anaerobic bacteria, agar-dilution; type: cell-based; settings: Bacteroides thetaiotaomicron 1438
[8] = test system: Bacteroides melaninogenicus; assay: MIC anaerobic bacteria, agar-dilution; type: cell-based; settings: Bacteroides melaninogenicus 2736
Bacteroides vulgatis = assay: MIC anaerobic bacteria, agar-dilution; type: cell-based; settings: Bacteroides vulgatis 1211
[9] = test system: Fusobacterium necrophorum; assay: MIC anaerobic bacteria, agar-dilution; type: cell-based; settings: Fusobacterium necrophorum 6054A
Clostridium difficile [10] = assay: MIC against Clostridium difficile strains, agar-dilution; type: cell-based
Description: The A41030 antibiotic factors A, B, C, D, E, F, and G, are also active against a number of strains of Clostridium difficile, as determined by the agardilution method.

Staphylococcus aureus = assay: MIC aerobic bacteria, standard agar-dilution assay; type: cell-based
[11] = test system: Staphylococcus epidermidis; assay: MIC aerobic bacteria, standard agar-dilution assay; type: cell-based
Streptococcus pyogenes = assay: MIC aerobic bacteria, standard agar-dilution assay; type: cell-based; settings: Streptococcus pyogenes C203, 24 hours
Streptococcus pneumoniae = assay: MIC aerobic bacteria, standard agar-dilution assay; type: cell-based; settings: Streptococcus pneumoniae Park I, 24 hours
[12] = test system: Streptococcus sp. Group D; assay: MIC aerobic bacteria, standard agar-dilution assay; type: cell-based
Klebsiella pneumoniae = assay: MIC aerobic bacteria, standard agar-dilution assay; type: cell-based; settings: Klebsiella pueumoniae X68, 24 hours
Enterobacter aerogenes = assay: MIC aerobic bacteria, standard agar-dilution assay; type: cell-based; settings: Enterobacter aerogenes C32, 24 hours
Enterobacter cloacae = assay: MIC aerobic bacteria, standard agar-dilution assay; type: cell-based
Salmonella typhi = assay: MIC aerobic bacteria, standard agar-dilution assay; type: cell-based
Serratia marcescens = assay: MIC aerobic bacteria, standard agar-dilution assay; type: cell-based; settings: Serratia marcescens X99, 24 hours
Citrobacter freundii = assay: MIC aerobic bacteria, standard agar-dilution assay; type: cell-based; settings: Citrobacter freundii CF17, 24 hours
S. pneumoniae = assay: Experimental bacterial infection in mice, subcutaneous ED50; type: in vivo; settings: two doses subcutaneously
Procedure: (§1) All of the A41030 factors tested have shown in vivo antimicrobial activity against experimental bacterial infections. When two doses of test compound were administered subcutaneously to mice in illustrative infections, the activity observed is measured as an ED50 value [effective dose in mg./kg. to protect fifty percent of the test animals: See Warren Wick, et al., J. Bacteriol. 81, 233-235 (1961)].

Staph. aureus = assay: as above; type: in vivo; settings: two doses subcutaneously
Procedure: as §1

S. pyogenes = assay: In vivo oral activity against S. pyogenes in mice

With A41030 factor B the “pKa, first titratable group” value [1] was “about 5.6”, the “pKa, second titratable group” value [1] was roughly 7.5 and the “possibly additional pKa's” value ([1]; stated as possible) was greater than 10. For the same substance, the “solubility (solvents)” value (Solubility in solvents) was “soluble in the same solvents as factor A”, the MIC (Propionibacterium acnes [2]; P. acnes strain 44) was 0.06 µg/mL and the MIC (Propionibacterium acnes [2]; P. acnes strain 79) was 0.06 µg/mL. It also gave an MIC (Propionibacterium acnes [2]; P. acnes strain 101) of 0.06 µg/mL, an MIC (Propionibacterium acnes [2]; P. acnes strain 103) of 0.06 µg/mL and an MIC (Propionibacterium acnes [2]; P. acnes strain 104) of 0.25 µg/mL. The MIC (Propionibacterium acnes [2]; P. acnes strain 105) was 0.06 µg/mL, the MIC (Propionibacterium acnes [2]; P. acnes strain 106) was 0.06 µg/mL and the MIC (Propionibacterium acnes [2]; P. acnes strain 107) was 0.06 µg/mL. It also gave an MIC (Propionibacterium acnes [2]; P. acnes strain 5170) of no more than 0.03 µg/mL, an MIC (Propionibacterium acnes [2]; P. acnes strain 5176) of 0.06 µg/mL and an MIC (Propionibacterium acnes [2]; P. acnes strain 5187) of 0.06 µg/mL. For the same substance, the MIC (Propionibacterium acnes [2]; P. acnes strain 5191) was 0.06 µg/mL, the MIC (Propionibacterium acnes [2]; P. acnes strain 5197) was 0.06 µg/mL and the MIC (Propionibacterium acnes [2]; P. acnes strain 5226) was 0.5 µg/mL. The MIC (Propionibacterium acnes [2]; P. acnes strain 5227) was 0.06 µg/mL, the MIC (Propionibacterium acnes [2]; P. acnes strain 5228) was 0.5 µg/mL and the MIC (Propionibacterium acnes [2]; P. acnes strain 5229) was 0.25 µg/mL. It also gave an MIC (Propionibacterium acnes [2]; P. acnes strain 5246) of 0.125 µg/mL, an MIC (Propionibacterium acnes [2]; P. acnes strain 5292) of 0.06 µg/mL and an MIC (Clostridium difficile [3]) of 32 µg/mL. It also gave an MIC (Clostridium perfringens) of 0.5 µg/mL, an MIC (Clostridium septicum) of 4 µg/mL and an MIC [4] of no more than 0.25 µg/mL. The MIC (Peptococcus prevoti) was no more than 0.25 µg/mL, the MIC [5] was no more than 0.25 µg/mL and the MIC (Propionibacterium acnes [6]) was 16 µg/mL. It also gave an MIC (Bacteroides fragilis; Bacteroides fragilis 111) of 64 µg/mL, an MIC (Bacteroides fragilis; Bacteroides fragilis 1877) of 32 µg/mL and an MIC (Bacteroides fragilis; Bacteroides fragilis 1936B) of 32 µg/mL. The MIC [7] was 32 µg/mL, the MIC [8] was 4 µg/mL and the MIC (Bacteroides vulgatis) was 32 µg/mL. The MIC [9] was 8 µg/mL, the MIC (Clostridium difficile [10]; Clostridium difficile 78) was 0.5 µg/mL and the MIC (Clostridium difficile [10]; Clostridium difficile 107B) was 0.5 µg/mL. It also gave an MIC (Clostridium difficile [10]; Clostridium difficile 111F) of 1.0 µg/mL, an MIC (Clostridium difficile [10]; Clostridium difficile 1153) of 1.0 µg/mL and an MIC (Clostridium difficile [10]; Clostridium difficile 2634) of 1.0 µg/mL. For the same substance, the MIC (Clostridium difficile [10]; Clostridium difficile 3424-5B) was 1.0 µg/mL, the MIC (Clostridium difficile [10]; Clostridium difficile 3816) was 1.0 µg/mL and the MIC (Clostridium difficile [10]; Clostridium difficile 3950D) was 1.0 µg/mL. The MIC (Clostridium difficile [10]; Clostridium difficile 6890) was 1.0 µg/mL, the MIC (Clostridium difficile [10]; Clostridium difficile 8484) was 1.0 µg/mL and the MIC (Clostridium difficile [10]; Clostridium difficile A-194) was 1.0 µg/mL. The MIC (Clostridium difficile [10]; Clostridium difficile A-195) was 1.0 µg/mL, the MIC (Clostridium difficile [10]; Clostridium difficile A-196) was 1.0 µg/mL and the MIC (Clostridium difficile [10]; Clostridium difficile A-279) was 1.0 µg/mL. It also gave an MIC (Clostridium difficile [10]; Clostridium difficile A-280) of 0.5 µg/mL, an MIC (Clostridium difficile [10]; Clostridium difficile A-281) of 1.0 µg/mL and an MIC (Clostridium difficile [10]; Clostridium difficile WAL-2112) of 1.0 µg/mL. It also gave an MIC (Clostridium difficile [10]; Clostridium difficile WAL-3657) of 1.0 µg/mL, an MIC (Clostridium difficile [10]; Clostridium difficile WAL-4268) of 0.5 µg/mL and an MIC (Staphylococcus aureus; Staphylococcus aureus S13E, agar-dilution, 24 hours) of 0.125 µg/mL. The MIC (Staphylococcus aureus; in µg/mL) was 0.125 and 0.25, the MIC ([11]; Staphylococcus epidermidis EPI1, 24 hours) was 0.125 µg/mL and the MIC ([11]; Staphylococcus epidermidis EPI2, 24 hours) was 0.5 µg/mL. The MIC (Streptococcus pyogenes) was 0.25 µg/mL, the MIC (Streptococcus pneumoniae) was 0.5 µg/mL and the MIC ([12]; Streptococcus sp. Group D 9960, 24 hours) was 1 µg/mL. It also gave an MIC ([12]; Streptococcus sp. Group D X66, 24 hours) of 1 µg/mL, an MIC (Klebsiella pneumoniae) of 128 µg/mL and an MIC (Enterobacter aerogenes) of 64 µg/mL. The MIC (Enterobacter cloacae; Enterobacter cloacae 265A, 24 hours) was 128 µg/mL, the MIC (Enterobacter cloacae; Enterobacter cloacae EB5, 24 hours) was 128 µg/mL and the MIC (Salmonella typhi; Salmonella typhi 1335, 24 hours) was greater than 128 µg/mL. For the same substance, the MIC (Salmonella typhi; Salmonella typhi X514, 24 hours) was greater than 128 µg/mL, the MIC (Serratia marcescens) was 128 µg/mL and the MIC (Citrobacter freundii) was 128 µg/mL. For the same substance, the ED50 (S. pneumoniae) was 1.4 mg/kg, the ED50 (Staph. aureus) was less than 0.43 mg/kg and the “in vivo oral activity” value (S. pyogenes) was greater than 300 mg./kg.×2.
